# Experimental data reported in ChEMBL document CHEMBL5136967, “Identification of molecular glues of the SLP76/14-3-3 protein-protein interaction” (RSC Med Chem, 2021).
# Organism: Homo sapiens
# Assay: Binding affinity to His6-tagged/Tb-labelled 14-3-3gamma (unknown origin)/His6-SUMO-tagged/AF647-labelled SLP76 (unknown origin) expressed in Noco21 (DE3) cells assessed as fold change in KD improvement by HTRF assay
row,Structure (SMILES),fold change (FC)
1,O=C(c1ccc(Cl)cc1)n1c(Cn2nnc(-c3cccc4ccccc34)n2)n[nH]c1=S,1.8
2,Fc1ccc(OCc2nn3c(Cn4cnc5ccccc54)nnc3s2)cc1,3.5
3,CC(C)CNC(=O)c1ccc2c(c1)nc1n2CCN(C(C)C)C1=O,5.2
4,CC(C)N1CC[C@H]2COC(=O)N2c2cc(F)ccc2C1,4.1
5,COc1ccc(C(=O)N2C[C@@H]3CN(CCO3)C(=O)[C@@H]3C[C@@H](CN3Cc3ccc4c(c3)OCO4)NC(=O)C[C@@H]3O[C@H](C2)[C@@H](O)[C@H]3O)cc1,3.4
6,CC1=CCC2COC(C[N+]3(C)CCCCC3)C1C2 (configuration not stated),4.7
7,CC1=Nn2c(nnc2-c2ccoc2C)SC1,1.4
8,S=c1[nH]nc(Cn2nnc3ccccc32)o1,1.1
9,COc1ccccc1-c1nnc2scnn12,11
10,c1cc(-c2nnc3scnn23)ccn1,4.4
11,O=C1OC[C@@H]2CCN(Cc3ccccc3)Cc3ccccc3N12,3.3
12,O=C(Cn1nc(C(F)(F)F)c2c1CCCC2)Nc1ccc(Cl)c(Cl)c1,14.6
